Results: publication PMC4505445 (The Journal of Biological Chemistry, 2015)
Structures can show the parent of a compound that is named as a salt.

Target: T1, human prion protein 91–231 (Homo sapiens, UniProt P04156)
T1 construct: gene PRNP
Test: biochemical
Type: binding

**Q.** Which Kd does the source give for COc1cc(-c2ccc(N=Nc3ccc4c(S(=O)(=O)O)cc(S(=O)(=O)O)c(N)c4c3O)c(OC)c2)ccc1N=Nc1ccc2c(S(=O)(=O)O)cc(S(=O)(=O)O)c(N)c2c1O [Chicago Sky Blue 6B] here?
**A.** The Kd was 1.43 ± 0.24 µM.

Target: T2, human prion protein 23–231 (PrP, unlabeled wild type) (Homo sapiens, UniProt P04156)
T2 construct: gene PRNP
Test: biochemical
Type: binding

**Q.** With C[C@@H]1[C@H](O)[C@@H](C)/C=C/C=C/C=C/C=C/C=C/C=C/C=C/[C@H](O[C@@H]2O[C@H](C)[C@@H](O)[C@H](N)[C@@H]2O)C[C@@H]2O[C@](O)(C[C@@H](O)C[C@@H](O)[C@H](O)CC[C@@H](O)C[C@@H](O)CC(=O)O[C@H]1C)C[C@H](O)[C@H]2C(=O)O [Amphotericin B] as the compound, how does the IC50 read?
**A.** Its IC50 is 88.8 µM.

**Q.** How did the IC50 turn out when O=C1c2c(O)cccc2Cc2cccc(O)c21 [Anthralin] was run?
**A.** Its IC50 is greater than 100 µM.

**Q.** NC(CO)C(=O)NNCc1ccc(O)c(O)c1O (stereo not shown) [Benserazide HCl] was tested. Which IC50 did it give?
**A.** The IC50 was greater than 100 µM.

**Q.** How did the IC50 turn out when CC(C)/N=c1\cc2n(-c3ccc(Cl)cc3)c3ccccc3nc-2cc1Nc1ccc(Cl)cc1 [Clofazimine] was run?
**A.** The IC50 was greater than 100 µM.

**Q.** CC[N+](C)(CC)CCC[n+]1c(-c2ccccc2)c2cc(N)ccc2c2ccc(N)cc21 [Propidium iodide] was tested. Which IC50 did it give?
**A.** Its IC50 is greater than 100 µM.

**Q.** With COc1cc(C(=O)NS(=O)(=O)c2ccccc2C)ccc1Cc1cn(C)c2ccc(NC(=O)OC3CCCC3)cc12 [Zafirlukast] as the compound, how does the IC50 read?
**A.** Its IC50 is 85.7 µM.
